Usually Kd stands for the free concentration of one partner at which half of the binding sites on the other are occupied at equilibrium, for simple one-to-one binding. What is called IC50 is the concentration that inhibits the measured activity by half.

The target of experiment [1] is T1, KRas G12D (Homo sapiens (Human), UniProt P01116, G12D). Briefly: KRas G12D Surface Plasmon Resonance (SPR) Binding Assay. Conditions: Biacore T200, immobilized biotinylated KRAS protein, 1:1 binding model. As for the experimental part:
Briefly, 1L of 1.05X HBS-Mg buffer (262.5 mM Bioultra Hepes, pH 7.5, 157.5 mM NaCl, 105 mM MgCl2, 0.525 mM TCEP, 0.0305% Brij-35) was prepared and filter sterilized using a 0.22 μm bottle top filter. Approximately 50 mL of 1.05X HBS-Mg buffer was removed and saved for future dilutions. A 50 mL aliquot of DMSO (Sigma Aldrich DMSO Lot. #SHBK2079) was added and continued to stir for 10 minutes, creating the final 1.0X HBS-Mg buffer (250 mM Bioultra Hepes pH 7.5, 150 mM NaCl, 100 mM MgCl2, 0.5 mM TCEP, 0.03% Brij-35).
Biacore T200 instrument was primed using 1.0X HBS-Mg buffer before docking a GE Streptavidin (SA) chip and then primed two additional times prior to beginning the immobilization step. All immobilized protein mixtures were created using 3-5 mg/mL Biotinylated Avidin-tagged KRAS protein using the following immobilization settings: SA chip type, 1 flow cells per cycle, 720 second contact time, and 5 ul/min flow rate. Normalization of the detector was also performed during the immobilization step using the GE BiaNormalize solution.
All compounds were diluted to 10 mM in 100% DMSO prior to being diluted 20X in 1.05X buffer. Another 10X dilution was created using 1.0X buffer prior to performing a series of 3X dilutions to create a compound concentration curve using the following assay settings: 20C analysis temperature, General Settings=10 Hz data collection rate and multi-detection; Assay Steps=all set to LMW kinetics; Cycle Types=LMW kinetics (60 s contact time, 120 s dissociation time, 100 ul/min flow rate, extra wash after injection with 50% DMSO, flow path 1,2,3,4); Flow path detection=2-1, 4-3). Data evaluation was performed using the Biacore T200 Evaluation software and data fit to 1:1 binding model. ND=not determined.
(In general: Surface plasmon resonance follows binding to a sensor surface in real time, without labels.)
Target sequence in this assay (P01116-2 other isoform, or with tags, fused parts or gaps G12D): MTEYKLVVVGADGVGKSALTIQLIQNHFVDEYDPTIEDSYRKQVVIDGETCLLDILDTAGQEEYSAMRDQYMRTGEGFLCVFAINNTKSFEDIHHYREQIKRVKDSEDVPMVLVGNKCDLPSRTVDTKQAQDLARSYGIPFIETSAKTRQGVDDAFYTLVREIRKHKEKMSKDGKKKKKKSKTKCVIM

Experiment [2] has as its target T1, KRas G12D. Briefly: KRas G12D Binding Assay (TR-FRET displacement of Cy5 labelled tracer). Conditions: GDP-loaded KRAS G12D (amino acids 1:169), 60 minute incubation at 22° C. As for the experimental part:
After a 60 minute incubation at 22° C., the reaction was measured using a PerkinElmer EnVision multimode plate reader via TR-FRET dual wavelength detection, and the percent of control (POC) calculated using a ratiometric emission factor. […] The POC values were fit to a 4-parameter logistic curve and the IC50 value was determined as the concentration where the curve crosses 50 POC.
ND stands for “not determined.”
Target sequence in this assay (P01116 other isoform, or with tags, fused parts or gaps G12D): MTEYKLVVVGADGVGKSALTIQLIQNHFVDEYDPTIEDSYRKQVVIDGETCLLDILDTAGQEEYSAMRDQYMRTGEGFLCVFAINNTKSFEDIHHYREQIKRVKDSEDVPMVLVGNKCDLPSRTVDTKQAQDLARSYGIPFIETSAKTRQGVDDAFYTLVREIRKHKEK

Each structure is given as a SMILES string. Some results are limits rather than exact numbers.

Take `CN1CCC[C@H]1COc1nc(N2CC3CCC(Cl)(C2)N3)c2cnc(-c3cc(O)cc4ccccc34)c(F)c2n1` (stereo partly drawn) [Example 160, 4-(4-(1-chloro-3,8-diazabicyclo[3.2.1]octan-3-yl)-8-fluoro-2-(((S)-1-methylpyrrolidin-2-yl)methoxy)pyrido[4,3-d]pyrimidin-7-yl)naphthalen-2-ol bis(2,2,2-trifluoroacetate)]: the Kd at KRas G12D [1] was 0.0003 µM. The concentration for half-maximal inhibition (IC50) on KRas G12D [2] turned out to be 0.12 µM.
For `CO[C@@H]1C[C@@H](COc2nc(N3C[C@H]4CC[C@@H](C3)N4)c3cnc(-c4cccc5cccc(Cl)c45)c(F)c3n2)N(C)C1` [Example 34, 4-((1R,5S)-3,8-diazabicyclo[3.2.1]octan-3-yl)-7-(8-chloronaphthalen-1-yl)-8-fluoro-2-(((2S,4R)-4-methoxy-1-methylpyrrolidin-2-yl)methoxy)pyrido[4,3-d]pyrimidine], in that order: 0.119 µM and 0.135 µM.
For the molecule `Oc1cc(-c2ncc3c(N4C[C@H]5CC[C@@H](C4)N5)nc(OCc4cccnc4)nc3c2F)c2ccccc2c1` [Example 99, 4-(4-((1R,5S)-3,8-diazabicyclo[3.2.1]octan-3-yl)-8-fluoro-2-(pyridin-3-ylmethoxy)pyrido[4,3-d]pyrimidin-7-yl)naphthalen-2-ol], on KRas G12D [1], binding was put at a Kd of 0.897 µM. The molecule further showed a 50% inhibitory concentration (IC50) on KRas G12D [2] of 0.624 µM.
The like results for `CN(C)C1(C)CN(c2nc(N3C[C@H]4CC[C@@H](C3)N4)c3cnc(-c4cccc5cccc(Cl)c45)c(F)c3n2)C1` [Example 127, 1-(4-((1R,5S)-3,8-diazabicyclo[3.2.1]octan-3-yl)-7-(8-chloronaphthalen-1-yl)-8-fluoropyrido[4,3-d]pyrimidin-2-yl)-N,N,3-trimethylazetidin-3-amine] were, in that order, 0.864 µM and 0.251 µM.
As for `CCOC(=O)CCCOc1nc(N2C[C@H]3CC[C@@H](C2)N3)c2cnc(-c3cccc4cccc(Cl)c34)c(F)c2n1` [Example 319, Ethyl 4-((4-((1R,5S)-3,8-diazabicyclo[3.2.1]octan-3-yl)-7-(8-chloronaphthalen-1-yl)-8-fluoropyrido[4,3-d]pyrimidin-2-yl)oxy)butanoate], the Kd at KRas G12D [1] amounted to 256 µM. Also, the IC50 on KRas G12D [2] is above 10 µM.
On KRas G12D [1], `Oc1cc(-c2ncc3c(N4C[C@H]5CC[C@@H](C4)N5)nc(OCc4ccccn4)nc3c2F)c2ccccc2c1` [Example 89, 4-(4-((1R,5S)-3,8-diazabicyclo[3.2.1]octan-3-yl)-8-fluoro-2-(pyridin-2-ylmethoxy)pyrido[4,3-d]pyrimidin-7-yl)naphthalen-2-ol] registered a Kd of 4.31 µM. The IC50 at KRas G12D [2] came to 0.679 µM.
The like results for `Fc1c(-c2cccc3cccc(Cl)c23)ncc2c(N3C[C@H]4CC[C@@H](C3)N4)nc(OCCn3cccn3)nc12` [Example 147, 2-(2-(1H-pyrazol-1-yl)ethoxy)-4-((1R,5S)-3,8-diazabicyclo[3.2.1]octan-3-yl)-7-(8-chloronaphthalen-1-yl)-8-fluoropyrido[4,3-d]pyrimidine] were, in that order, 18.8 µM and 5.88 µM.
The like results for `Cn1ccnc1CCOc1nc(N2C[C@H]3CC[C@@H](C2)N3)c2cnc(-c3cccc4cccc(Cl)c34)c(F)c2n1` [Example 114, 4-((I R,5S)-3,8-diazabicyclo[3.2.1]octan-3-yl)-7-(8-chloronaphthalen-1-yl)-8-fluoro-2-(2-(1-methyl-1H-imidazol-2-yl)ethoxy)pyrido[4,3-d]pyrimidine] were, in that order, 0.384 µM and 0.482 µM.
For `O=Cc1cc(CCCOc2nc(N3C[C@H]4CC[C@@H](C3)N4)c3cnc(-c4cccc5cccc(Cl)c45)c(F)c3n2)ccc1O` [Example 320, 5-(3-((4-((1R,5S)-3,8-diazabicyclo[3.2.1]octan-3-yl)-7-(8-chloronaphthalen-1-yl)-8-fluoropyrido[4,3-d]pyrimidin-2-yl)oxy)propyl)-2-hydroxybenzaldehyde], in that order: 71.6 µM and above 10 µM.
In the case of `CC(C)N1CCC[C@H]1COc1nc(N2C[C@H]3CC[C@@H](C2)N3)c2cnc(-c3cccc4cccc(Cl)c34)c(F)c2n1` [Example 29, 4-((1R,5S)-3,8-diazabicyclo[3.2.1]octan-3-yl)-7-(8-chloronaphthalen-1-yl)-8-fluoro-2-(((S)-1-isopropylpyrrolidin-2-yl)methoxy)pyrido[4,3-d]pyrimidine], binding on KRas G12D [1] was characterised by a dissociation constant (Kd) of 0.17 µM. Moreover, the IC50 on KRas G12D [2] amounted to 0.16 µM.
For `Cc1cccc2cccc(-c3cc4nc(OC[C@@H]5CCCN5C)nc(N5C[C@H]6CC[C@@H](C5)N6)c4cn3)c12` [Example 116, 4-((1R,5S)-3,8-diazabicyclo[3.2.1]octan-3-yl)-7-(8-methylnaphthalen-1-yl)-2-(((S)-1-methylpyrrolidin-2-yl)methoxy)pyrido[4,3-d]pyrimidine], in that order: 3.63 µM and 1.44 µM.
`Oc1cc(-c2ncc3c(N4C[C@H]5CC[C@@H](C4)N5)nc(N4CCC4)nc3c2F)c2ccccc2c1` [Example 119, 4-(2-(azetidin-1-yl)-4-((1R,5S)-3,8-diazabicyclo[3.2.1]octan-3-yl)-8-fluoropyrido[4,3-d]pyrimidin-7-yl)naphthalen-2-ol 2,2,2-trifluoroacetate]: the Kd on KRas G12D [1] came out at 0.511 µM. At KRas G12D [2], the half-maximal inhibitory concentration (IC50) stood at 0.684 µM.
The like results for `Oc1cc(-c2ncc3c(N4C[C@H]5CC[C@@H](C4)N5)nc(OCCc4ccccn4)nc3c2F)c2ccccc2c1` [Example 4, 4-(4-((1R,5S)-3,8-diazabicyclo[3.2.1]octan-3-yl)-8-fluoro-2-(2-(pyridin-2-yl)ethoxy)pyrido[4,3-d]pyrimidin-7-yl)naphthalen-2-ol] were, in that order, 0.156 µM and 0.496 µM.
For `Oc1cc(-c2ncc3c(N4C[C@H]5CC[C@@H](C4)N5)nc(OCCCC(F)(F)F)nc3c2F)c2ccccc2c1` [Example 38, 4-(4-((1R,5S)-3,8-diazabicyclo[3.2.1]octan-3-yl)-8-fluoro-2-(4,4,4-trifluorobutoxy)pyrido[4,3-d]pyrimidin-7-yl)naphthalen-2-ol], in that order: 0.75 µM and 0.174 µM.
For `Cn1cnc(COc2nc(N3C[C@H]4CC[C@@H](C3)N4)c3cnc(-c4cc(O)cc5ccccc45)c(F)c3n2)c1` [Example 9, 4-(4-((1R,5S)-3,8-diazabicyclo[3.2.1]octan-3-yl)-8-fluoro-2-((1-methyl-1H-imidazol-4-yl)methoxy)pyrido[4,3-d]pyrimidin-7-yl)naphthalen-2-ol], in that order: 0.259 µM and 0.821 µM.
In turn, `Fc1c(-c2cccc3cccc(Cl)c23)ncc2c(N3C[C@H]4CC[C@@H](C3)N4)nc(OC[C@@H]3CCCN3Cc3ccccc3)nc12` [Example 97, 2-(((S)-1-benzylpyrrolidin-2-yl)methoxy)-4-((1R,5S)-3,8-diazabicyclo[3.2.1]octan-3-yl)-7-(8-chloronaphthalen-1-yl)-8-fluoropyrido[4,3-d]pyrimidine] had a Kd on KRas G12D [1] of 5.92 µM. This molecule had an IC50 on KRas G12D [2] of 0.934 µM.
In turn, `CN(C)C1CN(c2nc(N3C[C@H]4CC[C@@H](C3)N4)c3cnc(-c4cc(O)cc5ccccc45)c(F)c3n2)C1` [Example 120, 4-(4-((1R,5S)-3,8-diazabicyclo[3.2.1]octan-3-yl)-2-(3-(dimethylamino)azetidin-1-yl)-8-fluoropyrido[4,3-d]pyrimidin-7-yl)naphthalen-2-ol bis(2,2,2-trifluoroacetate)] registered a Kd on KRas G12D [1] of 0.0421 µM. Besides, the IC50 on KRas G12D [2] came to 0.0288 µM.

Source of the values: patent US20230279025A1, “KRAS G12D INHIBITORS” (Mirati Therapeutics, Inc., priority 2020, published 2023).
